What all share (type): physicochemical
Data set [1] is described as follows: Thermal degradation (weight loss) by TGA at 180 °C in nitrogen purge. The conditions noted are these: TGA 180 °C, 60 minutes, 0.3% antioxidant added to CPE slurry heated to 80 °C for 90 minutes. On the procedure:
The thermal degradation (weight loss) of the following samples is measured by TGA at 180 °C (in a nitrogen purge during 60 minutes).

The nature of data set [2]: Extension at break after roll milling, dry blending versus liquid-liquid addition of antioxidant. The note with it: with calcium stearate, epoxidized soja bean oil, titanium dioxide. The procedure: In order to illustrate the advantages of liquid-liquid blending over dry blending, a sample of CPE containing 36% chlorine, having a density of 1.18 g/cm³, a weight average molecular weight of 2x10⁵ and a cristallinity of 0.5% is mixed in a food processor with 1% calcium stearate, 1% epoxidized soja bean oil and 0.5% titanium dioxide, based on the weight of the CPE. The mixture is formed into a sheet of 3 mm thickness on a roll mill at 190 °C, and its tensile properties are measured. The extension at break is a measure of the molecular weight of a polymer. The material breaks at 596% extension.
Another sample of the same material is milled for 15 minutes at 190 °C before a sheet of 3 mm thickness is formed.
The antioxidant IRGANOX 1076 (trademark) is added to the mixture as described above at an amount of 0.25% by the weight of the CPE using the food mixer. The resulting mixture is milled for 15 minutes. The extension at break of a sheet of 3 mm thickness, prepared as indicated above, is 740%, showing that the degree of chain scission is reduced by the addition of the antioxidant. (comparative run, but not State of the Art.)
To an aqueous slurry containing 16 % of the CPE, based on the total weight of the slurry, 0.25% IRGANOX 1076 (trademark), by the weight of CPE is added in the manner described in Example 1. The mixture is dried as described in Example 1. […]

The nature of data set [3]: Total organic carbon (TOC) of the slurry, test of antioxidant deposition on CPE. The note with it: 60 minutes after addition of 0.5% antioxidant to the CPE slurry; 11.8 ppm before addition. On the procedure:
In order to test that the antioxidant has actually deposited on the CPE, rather than on the reactor walls, the total organic carbon (TOC) of the slurry is measured, and a glass slide placed in the reactor during the test is investigated for deposition of antioxidant.

On to `Cc1cc(CCC(=O)OCCOCCOCCOC(=O)CCc2cc(C)c(O)c(C(C)(C)C)c2)cc(C(C)(C)C)c1O` [IRGANOX 245, triethylene glycol bis [3-tert-butyl-4-hydroxy-5-methylphenyl]propionate], for which the “thermal degradation (weight loss)” value in data set [1] was found to be 75 ppm/min.
With `CCCCCCCCCCCCCCCCCCOC(=O)CCc1cc(C(C)(C)C)c(O)c(C(C)(C)C)c1` [IRGANOX 1076, Octadecyl 3,5-di-tert-butyl-4-hydroxyhydrocinnamate], the extension at break worked out at 704% in data set [2] (0.25% antioxidant added to aqueous slurry with 16% CPE (method of the invention), 15 minutes milling) and 740% in data set [2] (0.25% antioxidant dry-blended in food mixer (comparative run), milled 15 minutes at 190 °C, sheet of 3 mm). Also, the “total organic carbon (TOC) of the slurry” value in data set [3] is given as 10.0 ppm.

(Values after EP0561516A1, “Process for stabilizing chlorinated polyethylene against degradation” (THE DOW CHEMICAL COMPANY, priority 1992, dated 1993).)
